From patent publication US20080268535A1, “Method for Inducing the Differentiation of Human Myelogenous Leukemia Cells Into Megakarocytes or Thrombocytes” (EWHA University - Industry Collaboration Foundation, priority 2005, published 2008)
“Also recorded” adds a separate entry of the source.

Assays:
Type in all cases: cell-based, human
HEL cells [1] = assay: Cell differentiation of HEL cells, optical microscopy; settings: 5 μg/ml (R)-NALPCE, 10 nmole PMA or 50 ng/ml TPO, 5 days
Procedure: HEL cells were aliquoted at a density of 3×10^5 cells per well in 6-well plates and treated with 5 μg/ml of (R)-NALPCE, 10 nmole of PMA, or 50 ng/ml of TPO, followed by incubation in a day-dependent manner for 5 days. They were observed under an optical microscope with 200× magnification.

K562 cells [2] = assay: Cell differentiation of K562 cells on OP9 cells, optical microscopy; settings: for cell morphology (optical microscope): 5 days
Procedure: A stromal line of OP9 cells derived from […] was aliquoted at a density of 1×10^5 cells in 6-well plates and incubated for 24 hrs. After the OP9 cells were uniformly attached onto the bottom of the plates, K562 cells were layered at a density of 1×10^5 cells on the OP9 cells in 6-well plates. The cells were treated with 40 μg/ml of (R)-NALPCE, or 500 pmole, 10 nmole or 50 nmole of PMA before incubation for 5 days. They were observed under an optical microscope with 200× magnification.

K562 cells [3] = assay: Differentiation inductivity, lineage receptor expression by FACS, K562 cells
Procedure: K562 cells were aliquoted at a density of 2×10^5 per well in 6-well plates and treated with 40 μg/ml of (R)-NALPCE or 30 nM of PMA (12-phorbol myristate-13-acetate, Calbiochem.), followed by incubation for 4 days. After centrifugation (1,000 rpm, 10 min), the cell pellets thus obtained were washed three times with 0.01% bovine serum albumin (BSA) in PBS. The cells were incubated with 10 μl of anti-CD41-fluorescein-5-isothiocyanate (FITC) (Dako Chemicals, Carpenteria, Calif.), 20 μl of anti-CD16-Cy-Chrome (Cy) (BD Pharmingen), 10 μl of anti-glycophorin ACD235a-phycoerythrin (PE) (Dako Chemicals, Carpenteria, Calif.), and 20 μl of anti-CD14-allophycocyanin (APC) (BD Pharmingen) in 200 μl of 0.01% bovine serum albumin (BSA)-PBS at 4° C. for 50 min while spinning to realize homogeneous fluorescent staining. After centrifugation (1,000 rpm, 10 min), the cell pellets thus obtained were washed three times with 0.01% bovine serum albumin (BSA) in PBS. Fluorescence was analyzed on a fluorescence-activated cell sorter (FACS) (Aria) using a Cellquest program.

HEL cells [4] = assay: Differentiation inductivity, lineage receptor expression by FACS, HEL cells; settings: 5 μg/ml (R)-NALPCE 5 days or 10 nM PMA 3 days
Procedure: HEL cells were aliquoted at a density of 3×10^5 cells per well in 6-well plates and treated separately with 5 μg/ml of (R)-NALPCE and 10 nM of 12-phorbol myristate-13-acetate (PMA) (Calbiochem.), followed by incubation for 5 and 3 days, respectively. After centrifugation (1,000 rpm, 10 min), cell pellets thus obtained were washed three times with 0.01% bovine serum albumin (BSA) in PBS and incubated with 10 μl of anti-CD61-fluorescein-5-isothiocyanate (FITC) (Dako Chemicals, Carpenteria, Calif.), 20 μl of anti-CD16-Cy-Chrome (Cy) (BD Pharmingen), 10 μl of anti-glycophorin ACD235a-phycoerythrin (PE) (Dako Chemicals, Carpenteria, Calif.), and 20 μl of anti-CD14-allophycocyanin (APC) (BD Pharmingen) in 200 μl of 0.01% bovine serum albumin (BSA)-PBS at 4° C. for 50 min with spinning so as to achieve homogenous fluorescent staining over the cells. After centrifugation (1,000 rpm, 10 min), the cell pellets thus obtained were washed three times with 0.01% bovine serum albumin (BSA) in PBS. Fluorescence was analyzed on a fluorescence-activated cell sorter (FACS) (Aria) using a Cellquest program.

| Compound | cell morphology (optical microscope) (HEL cells [1]) | production or secretion of thrombocytes by differentiated megakaryocytes (K562 cells [2]; (R)-NALPCE with OP9 cells, PMA treatment) | cell morphology (optical microscope) (K562 cells [2]; K562 cells on OP9 cells, 500 pmole of PMA) | cell morphology (optical microscope) (K562 cells [2]; K562 cells on OP9 cells, 10 nmole of PMA) | thrombocyte-like morphology (K562 cells [2]; K562 cells on OP9 cells, 10 nmole of PMA, 5 days or more after treatment) | cell morphology (optical microscope) (K562 cells [2]; K562 cells on OP9 cells, 50 nmole of PMA) | expression of CD41, CD16, glycophorin A and CD14 receptors (K562 cells [3]; K562 cells, 40 μg/ml (R)-NALPCE or 30 nM PMA, 4 days) | number of cells expressing CD41, PMA versus (R)-NALPCE (K562 cells [3]; leukemia cells derived from human bone marrow, without OP9 cells) | expression of CD61, CD235a, CD16 and CD14 receptors (HEL cells [4]) |
| --- | --- | --- | --- | --- | --- | --- | --- | --- | --- |
| TPO: TPO, comparison agent applied at 50 ng/ml to HEL cells; abbreviation not expanded in the text | did not undergo significant change | – | – | – | – | – | – | – | – |
| CCCCCCCCCCCCCC(=O)O[C@@H]1[C@@H](C)[C@@]2(O)[C@@H](C=C(CO)C[C@]3(O)C(=O)C(C)=C[C@@H]23)[C@@H]2C(C)(C)[C@]12OC(C)=O [PMA, phorbol 12-myristate 13-acetate] | increased in size, but with morphology different from that upon treatment with (R)-NALPCE, and differentiated into macrophages | could not secrete thrombocytes; also recorded: could not produce thrombocyte-like cells | did not differentiate, but proliferated, like a control | increase in size, but with morphology different from that of those treated with (R)-NALPCE | no morphology similar to thrombocytes was observed | differentiate into macrophages | CD41 (megakaryocyte-specific receptor), CD16 (neutrophil-specific receptor), CD14 (monocyte-specific receptor) were expressed, particularly with a great increase of CD41 | increased in number more in a medium containing PMA than in a medium containing (R)-NALPCE | CD61 (megakaryocyte-specific receptor), CD16 (neutrophil-specific receptor), and CD14 (monocyte-specific receptor) were expressed, particularly with a great increase of CD61 |
